Source: ChEMBL document CHEMBL1201862, “PubChem BioAssay data set” (2004)
Activity calls are given as the source filed them.

Assays:
[1] = target: Cytochrome P450 2C9 (Homo sapiens, UniProt P11712)
[2] = target: Cytochrome P450 2C19 (Homo sapiens, UniProt P33261); assay: Cytochrome panel assay with activity outcomes. Panel member name: p450-cyp2c19 Compounds with AC50 equal or less than 10 uM are considered active; type: functional
[3] = NIH3T3 cell viability loss – ATP luminescence, mouse fibroblasts, counter-screen, dose response (AID 2010); type: functional, cell-based;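 further: cells exposed to compound for about 90 hours before reading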
[4] = Trypanosoma cruzi growth suppression in host cells – NIH3T3 host cells, beta-gal luminescence, confirmation (AID 2044); type: functional, cell-based;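 further: intracellular parasites grown in NIH/3T3 mouse fibroblasts as host cells; luminescent beta-galactosidase reporter signal from transgenic T. cruzi replicating inside host cells; inhibitors lower the luminescence signal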
[5] = viability of uninfected HEp-2 cells – cell-based, HTS, cytotoxicity control for RSV inhibitor project, dose response (AID 2410); type: functional; conditions: human respiratory syncytial virus
[6] = system: Streptococcus; assay: GAS UMAA2166 growth inhibition – luminescence, BacTiterGlo, counter-screen for streptokinase expression inhibitor project, dose response (AID 1915); type: functional, organism-based;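 further: potency for reduction of bacterial viability or growth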
[7] = system: Streptococcus sp. 'group A'; assay: Streptococcus pyogenes SK(-)GAS viability under kanamycin – luminescence, BacTiterGlo, confirmation, counter-screen for streptokinase expression inhibitor project, dose response (AID 1900); type: functional, organism-based
[8] = target: T1, Streptokinase A (Streptococcus pyogenes serotype M1, UniProt P10520); assay: viability-normalized secreted streptokinase activity reduction – plasminogen activation absorbance, OD405, dose response (AID 1914); type: functional, Streptococcus pyogenes M1 GAS;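 further: secreted streptokinase activity via plasminogen activation per viability signal from cell pellet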
T1 sequence (P10520 whole entry): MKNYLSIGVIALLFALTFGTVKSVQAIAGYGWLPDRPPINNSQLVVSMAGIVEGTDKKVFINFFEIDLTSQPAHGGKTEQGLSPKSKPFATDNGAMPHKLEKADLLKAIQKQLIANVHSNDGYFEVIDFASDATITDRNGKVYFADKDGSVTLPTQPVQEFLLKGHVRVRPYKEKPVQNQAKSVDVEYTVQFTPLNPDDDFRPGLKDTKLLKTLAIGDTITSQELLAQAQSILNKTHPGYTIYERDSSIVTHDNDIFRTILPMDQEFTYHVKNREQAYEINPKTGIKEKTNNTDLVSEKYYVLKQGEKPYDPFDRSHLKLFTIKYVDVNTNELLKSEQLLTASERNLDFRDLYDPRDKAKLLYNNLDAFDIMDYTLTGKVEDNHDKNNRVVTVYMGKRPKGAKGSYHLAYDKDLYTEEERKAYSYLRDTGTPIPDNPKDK

[9] = target: Cytochrome P450 3A4 (Homo sapiens, UniProt P08684);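 further: CYP3A4 tested as one member of a cytochrome P450 panel screen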
Chain of Cytochrome P450 3A4 (P08684 whole entry): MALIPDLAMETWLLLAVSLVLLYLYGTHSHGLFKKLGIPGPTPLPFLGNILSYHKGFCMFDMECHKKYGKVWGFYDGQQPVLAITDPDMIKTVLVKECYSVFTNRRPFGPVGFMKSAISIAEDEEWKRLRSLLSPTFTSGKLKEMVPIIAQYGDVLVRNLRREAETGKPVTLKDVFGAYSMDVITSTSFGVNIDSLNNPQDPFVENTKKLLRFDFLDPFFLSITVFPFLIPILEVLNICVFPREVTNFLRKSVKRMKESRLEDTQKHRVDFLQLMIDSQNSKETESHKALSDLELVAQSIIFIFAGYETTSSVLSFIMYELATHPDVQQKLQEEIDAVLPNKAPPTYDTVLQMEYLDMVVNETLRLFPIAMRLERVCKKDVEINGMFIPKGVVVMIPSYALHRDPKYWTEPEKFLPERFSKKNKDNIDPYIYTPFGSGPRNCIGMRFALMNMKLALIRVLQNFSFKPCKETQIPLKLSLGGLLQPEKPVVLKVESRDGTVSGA

Chain of Cytochrome P450 2C19 (P33261 whole entry): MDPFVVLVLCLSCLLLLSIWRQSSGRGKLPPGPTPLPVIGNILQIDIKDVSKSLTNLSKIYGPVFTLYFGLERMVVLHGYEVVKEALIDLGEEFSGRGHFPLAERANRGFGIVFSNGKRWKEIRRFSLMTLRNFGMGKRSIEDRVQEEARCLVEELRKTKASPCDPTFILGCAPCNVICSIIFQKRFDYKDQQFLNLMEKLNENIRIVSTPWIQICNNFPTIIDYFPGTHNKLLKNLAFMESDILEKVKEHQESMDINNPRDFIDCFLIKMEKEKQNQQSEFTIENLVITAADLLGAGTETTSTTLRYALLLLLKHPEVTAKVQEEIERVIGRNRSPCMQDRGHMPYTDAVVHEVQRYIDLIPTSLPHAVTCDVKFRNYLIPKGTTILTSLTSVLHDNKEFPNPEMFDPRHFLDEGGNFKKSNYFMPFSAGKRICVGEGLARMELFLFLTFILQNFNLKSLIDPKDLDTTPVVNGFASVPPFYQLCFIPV
Chain of Cytochrome P450 2C9 (P11712 whole entry): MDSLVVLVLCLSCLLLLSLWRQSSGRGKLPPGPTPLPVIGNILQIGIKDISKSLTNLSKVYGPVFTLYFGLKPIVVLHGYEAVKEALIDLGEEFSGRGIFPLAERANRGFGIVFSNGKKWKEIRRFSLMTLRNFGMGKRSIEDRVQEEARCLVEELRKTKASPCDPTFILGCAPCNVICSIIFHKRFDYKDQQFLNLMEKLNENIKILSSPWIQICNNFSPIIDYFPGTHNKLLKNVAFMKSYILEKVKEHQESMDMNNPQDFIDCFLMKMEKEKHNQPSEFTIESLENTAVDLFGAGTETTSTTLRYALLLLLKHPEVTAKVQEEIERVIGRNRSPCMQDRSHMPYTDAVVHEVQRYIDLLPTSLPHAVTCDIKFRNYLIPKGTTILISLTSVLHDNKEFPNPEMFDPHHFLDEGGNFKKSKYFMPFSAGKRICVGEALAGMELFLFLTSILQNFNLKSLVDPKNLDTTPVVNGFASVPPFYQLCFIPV

COc1ccc(Oc2ncc3nc(C)c(=O)n(C[C@H]4CCCO4)c3n2)cc1
AC50 [1]: 39.8 µM (inconclusive) | AC50 ([2]; read-out: AC50): 25.1 µM (inconclusive)

Cc1ccc(OC(=O)c2cccc(C(=O)Oc3ccc(C)cc3)n2)cc1
AC50 [2]: inconclusive

CC(C)NCC(O)COCCOc1ccc(Br)cc1 (configuration not stated)
EC50 [3]: > 30 µM (not active) | EC50 [4]: 1.1 µM (active)

Cc1ccc(C2c3c(C)nn(-c4ccc([N+](=O)[O-])cc4)c3N=C3C(=O)Nc4ccccc4N32)cc1 (configuration not stated)
EC50 [3]: > 60 µM (not active) | EC50 [4]: 1.45 µM (active)

COc1cccc(-c2nc(NC3CC3)c3ccccc3n2)c1
AC50 ([2]; read-out: AC50): 10 µM (inconclusive)

O=C(c1ccco1)N1CCC[C@@]2(CCN(C(c3ccccc3)c3ccccc3)C2)C1
AC50 [1]: 31.6 µM (inconclusive)

Cc1c(C(O)CN2CCN(Cc3ccc4c(c3)OCO4)CC2)c2ccccc2n1C (configuration not stated)
EC50 [3]: > 60 µM (not active) | EC50 [4]: 2.47 µM (active)

CC(=O)c1coc2c1cc(O)c1ccccc12
CC50 [5]: > 50 µM (active)

CN(CCOc1ccccc1)C(=O)c1cc([N+](=O)[O-])cc([N+](=O)[O-])c1
EC50 [3]: > 30 µM (not active) | EC50 [4]: 0.7 µM (active)

CCc1nc2ccccc2nc1O
CC50 [5]: 28.8 µM (active)

CCN1C(=O)N[C@@H](CCc2ccccc2)C(C(=O)OC)=C1C
CC50 [5]: 29.9 µM (active)

O=C(Cn1ccc(C(F)(F)F)n1)N=Nc1c(O)[nH]c2ccc(Br)cc12
CC50 [5]: > 50 µM (active)

Cc1cccc(CSc2ncnc3c2cnn3Cc2ccccc2)c1
EC50 [6]: > 150 µM (not active) | EC50 [7]: 23 µM (active) | EC50 [8]: > 150 µM (not active)

CC1N(C)c2cc(NC(=O)c3ccco3)c(P(=O)(Nc3ccc([N+](=O)[O-])cc3)N3CCOCC3)cc2C1(C)C (configuration not stated)
CC50 [5]: 18 µM (active)

COc1ncc2nc(-c3cn(C)c4ccccc34)c(=O)n(Cc3ccc(F)cc3)c2n1
AC50 ([2]; read-out: AC50): 15.8 µM (inconclusive)

C=CCCN(C1CCCC1)S(=O)(=O)c1ccccc1Br
CC50 [5]: > 50 µM (active)

C/C(CCC(=O)OC[C@@H]1O[C@H](C#Cc2ccccc2)C=C[C@@H]1Oc1ccc(C)cc1)=N/O[C@@H](C)CN1CCCCc2nc(C)c(C)cc21
AC50 ([2]; read-out: AC50): 1.26 µM (inconclusive)

O=C(c1ccccc1Cl)N1CCN(S(=O)(=O)c2cccs2)CC1
EC50 [6]: > 150 µM (not active) | EC50 [7]: > 150 µM (not active) | EC50 [8]: > 150 µM (not active)

CCC1CCCCN1c1nc2c(C=O)c(C)nn2c2ccccc12 (configuration not stated)
CC50 [5]: 20.5 µM (active)

CCC/C=C(\CCC)C(NS(=O)(=O)CC12CCC(CC1=O)C2(C)C)c1ccc(C(=O)OC)cc1 (configuration not stated)
AC50 ([2]; read-out: AC50): 25.1 µM (inconclusive)

CCOC(=O)c1c(C)[nH]c(C(=O)COC(=O)c2cc(C)oc2C)c1C
CC50 [5]: > 50 µM (active)

O=C(CCCN1C(=O)/C(=C\c2cccs2)SC1=S)Nc1cc([N+](=O)[O-])ccc1O
EC50 [6]: > 150 µM (not active) | EC50 [7]: 4.29 µM (active) | EC50 [8]: 25.3 µM (active)

CN(C(=S)NC(=O)c1ccccc1)C1CCCCC1
EC50 [6]: > 150 µM (not active) | EC50 [7]: > 150 µM (not active) | EC50 [8]: > 150 µM (not active)

O=C(C(Cc1ccccc1)N1C(=O)C2C3CCC(C3)C2C1=O)N1CCCCC1 (configuration not stated)
AC50 ([2]; read-out: AC50): 7.08 µM (inconclusive)

Fc1ccc(N2CCN(C3=Nc4cccc5cccc3c45)CC2)cc1
EC50 [3]: > 30 µM (not active) | EC50 [4]: 1.74 µM (active)

CCn1c(SCC(=O)OC)nnc1C1CCCCC1
AC50 ([2]; read-out: AC50): 14.1 µM (inconclusive)

O=C(NCC1CCCO1)c1cc2c3ccccc3nc-2c(-c2cccc(Cl)c2)[nH]1 (configuration not stated)
EC50 [6]: 25.3 µM (active) | EC50 [7]: 4.12 µM (active) | EC50 [8]: > 150 µM (not active)

CCN1CCN(S(=O)(=O)c2ccc(Cl)c(C(=O)Nc3nnc(CC(C)C)s3)c2)CC1
AC50 [1]: 25.1 µM (inconclusive) | AC50 ([2]; read-out: AC50): 39.8 µM (inconclusive)

CCc1c(C)nc(N)n2c(SCC(=O)Nc3ccccc3)nnc12
AC50 ([2]; read-out: AC50): 22.4 µM (inconclusive)

Cc1ccc2nc(O)c(COC(=O)C3CCCCC3)cc2c1
CC50 [5]: > 50 µM (active)

CN(C(=S)NC(=O)c1ccccc1Br)C1CCCCC1
AC50 [9]: 2.51 µM (inconclusive)

CCn1cc(CN2CCCC(C(=O)c3ccc(-c4ccccc4)cc3)C2)cn1 (configuration not stated)
EC50 [3]: 16.7 µM (active) | EC50 [4]: 0.222 µM (active)

FC(F)Sc1ccc(NC(S)=NC(c2ccccc2)c2ccccc2)cc1
EC50 [6]: 3.15 µM (active) | EC50 [7]: 2.4 µM (active)

O=S(=O)(Nc1cccc2c1CCCC2)c1ccc(Cl)cc1
EC50 [6]: > 150 µM (not active) | EC50 [7]: 4.86 µM (active) | EC50 [8]: 97.8 µM (inconclusive)

O=C(/C=C/c1cc[n+](CC(=O)c2ccc3cccc4c3c2CC4)cc1)c1ccc2cccc3c2c1CC3
EC50 [3]: > 60 µM (not active) | EC50 [4]: 0.146 µM (active)

COc1ccc(C2(C)NC(=O)N(CC(=O)Nc3ccc(-c4nc5ccc(C)cc5s4)cc3)C2=O)cc1 (configuration not stated)
CC50 [5]: 29.8 µM (active)

CN(C)CCCNc1ncc(C(F)(F)F)cc1Cl
EC50 [3]: > 30 µM (not active) | EC50 [4]: 0.659 µM (active)

O=C1NC(=O)N(CCc2ccccc2)C(=O)/C1=C(O)/C=C/c1c[nH]c2ccccc12
EC50 [6]: 5.6 µM (active) | EC50 [7]: 5.47 µM (active) | EC50 [8]: > 150 µM (not active)

Cc1ccc(Cn2cccc(NC(=O)NCc3ccccc3)c2=O)cc1
AC50 [1]: 14.1 µM (inconclusive) | AC50 ([2]; read-out: AC50): 5.01 µM (inconclusive)

COc1ccc(Oc2nc(C(F)(F)F)nc3ccccc23)cc1
EC50 [6]: > 150 µM (not active) | EC50 [7]: 29.1 µM (active) | EC50 [8]: 46.8 µM (active)

Cc1cc(N2CCOCC2)nc2ccc(NC(=O)CCC(=O)N3CCN(c4ccc(F)cc4)CC3)cc12
CC50 [5]: > 12.5 µM (active)

CCOCCCN=C(S)NCCNc1nc2c(C)cccc2cc1C#N
EC50 [3]: > 60 µM (not active) | EC50 [4]: 2.73 µM (active)

O=C(CCC(=O)Nc1ccccc1)NNC(=O)c1cccs1
AC50 [1]: 31.6 µM (inconclusive) | AC50 ([2]; read-out: AC50): 39.8 µM (inconclusive)

C=CCn1c(SCc2cc(=O)n3ccsc3n2)nc2scc(C3CC3)c2c1=O
CC50 [5]: 33.1 µM (active)

Cc1cnn(-c2nc(-c3ccccc3)cc(-c3ccccc3)n2)c1
EC50 [6]: > 150 µM (not active) | EC50 [7]: 9.49 µM (active) | EC50 [8]: 27.2 µM (active)

CCCCCSc1nc2c(c(=O)[nH]c(=O)n2C)n1C
CC50 [5]: > 50 µM (active)

Cc1ccc2nc(O)c(CN(CCCN(C)C)C(S)=NCCc3ccccc3)cc2c1
EC50 [3]: > 60 µM (not active) | EC50 [4]: 0.409 µM (active)

CCN(CC)CCN(C)C(=O)CCc1nnc(-c2ccc(C)s2)o1
EC50 [3]: > 60 µM (not active) | EC50 [4]: 1.35 µM (active)

O=C(Nc1cccc(-c2csc(Nc3ccc(Cl)cc3)n2)c1)c1ccccc1
EC50 [6]: 5.66 µM (active) | EC50 [7]: 4.01 µM (active) | CC50 [5]: 10.3 µM (active) | EC50 [8]: > 150 µM (not active)

CCC(C(=O)NC(C)CCc1ccccc1)n1nc(C)n2c(cc3occc32)c1=O (configuration not stated)
CC50 [5]: 39.2 µM (active)

O=C(Nc1nc(-c2ccccn2)cs1)C1CC1
EC50 [6]: > 150 µM (not active) | EC50 [7]: > 150 µM (not active) | EC50 [8]: > 150 µM (not active)

CN1CCC(OC(=O)c2ccccc2Cl)CC1
EC50 [3]: 10.5 µM (active) | EC50 [4]: 0.178 µM (active)

CC1=C(C#N)C(NC(=O)C2CCCCC2)(C(F)(F)F)C(=O)N1 (configuration not stated)
AC50 [1]: 7.94 µM (inconclusive) | AC50 ([2]; read-out: AC50): 28.2 µM (inconclusive)

Sc1nnc(-c2cccs2)n1/N=C/c1cn(-c2ccccc2)nc1-c1ccccc1
EC50 [6]: 71.7 µM (active) | EC50 [7]: 6.85 µM (active) | EC50 [8]: > 150 µM (not active)

NC(=S)N/N=C\c1c(OCc2ccccc2Cl)ccc2ccccc12
EC50 [6]: > 150 µM (not active) | EC50 [7]: 2.39 µM (active) | EC50 [8]: > 150 µM (not active)

FC(F)(F)c1ccccc1/C=N/n1c(S)nnc1COc1ccccc1
CC50 [5]: 32.1 µM (active)

COC(=O)[C@@H]1CC[C@H](C)[C@@H](c2ccc(C)cc2)N1C(=O)c1ccc(/C=N/O[C@@H](C)c2cn([C@H](CO)Cc3ccccc3)nn2)cc1
EC50 [3]: > 60 µM (inconclusive) | EC50 [4]: 0.891 µM (active)

Cn1c[n+](C)cc1/C=N/O
AC50 ([2]; read-out: AC50): 8.91 µM (inconclusive)

C=CCNC(=O)O/N=C/c1csc([N+](=O)[O-])c1
EC50 [3]: > 60 µM (not active) | EC50 [4]: 1.93 µM (active)

COc1ccc(CCNC=C2C(=O)CC(C)(C)CC2=O)cc1
AC50 [1]: 12.6 µM (inconclusive) | AC50 ([2]; read-out: AC50): 28.2 µM (inconclusive)

Cn1c(=O)c2[nH]c(-c3ccc(S(=O)(=O)O)cc3)nc2n(C)c1=O
AC50 [2]: inconclusive

O=C(N[C@H](CO)[C@H](O)c1ccc([N+](=O)[O-])cc1)C(Cl)Cl [CHLORAMPHENICOL]
EC50 [6]: 2.55 µM (active) | EC50 [7]: 1.84 µM (active)

CN1C(C(=O)Nc2ccccn2)=C(O)c2sccc2S1(=O)=O [TENOXICAM]
AC50 [1]: 2.51 µM (inconclusive)
